Source: patent US20240018158A1, “BRM TARGETING COMPOUNDS AND ASSOCIATED METHODS OF USE” (Prelude Therapeutics Incorporated, priority 2020, published 2024)

Experiments:
SMARCA2 = SMARCA2 (Homo sapiens (Human), UniProt P51531); assay: SMARCA2 HiBiT degradation assay in HeLa cells; format: cell-based; settings: 18 hours; for DC50: read-out: DC50 (SM2-HeLa) SMARCA2 degradation potency; for Dmax: read-out: Dmax % (SM2-HeLa) maximum SMARCA2 degradation within the concentrations tested
Method: (§1) HiBiT peptide knock-in of SMARCA2 in LgBiT expressing HEK293T cells was performed by CRISPR-mediated tagging system as described Promega. The homozygous HiBiT knock-in on c-terminus SMARCA2 was confirmed by sanger sequence. SMARCA2-HiBiT knock-in Hela monoclonal cell (CS302366) and SMARCA4-HiBiT knock-in Hela monoclonal cell (CS3023226) were purchased from Promega. The heterozygous HiBiT-knock-in was confirmed by sanger sequence in both SMARCA2-HiBiT and SMARCA4-HiBiT monoclonal cells.
(§2) Dispense 10 μL aliquot of prepared Hela-SMARCA2-HiBiT or Hela-SMARCA4-HiBiT cells (1:1 ratio of cells:Trypan Blue (#1450013, Bio-Rad)) onto cell counting slide (#145-0011, Bio-Rad) and obtain cell density and cell viability using cell counter (TC20, Bio-Rad). Remove appropriate volume of resuspended cells from culture flask to accommodate 2500 cells/well @ 20 μL/well. Transfer Hela-HiBiT cells to 50 ml conical (#430290, Corning). Spin down at 1000 rpm for 5 min using tabletop centrifuge (SPINCHRON 15, Beckman). Discard supernatant and resuspend cell pellet in modified EMEM (#30-2003, ATCC) cell culture media containing 10% FBS (F2422-500ML, Sigma), and 1×Penicillin/Streptomycin (200 g/1) (30-002-CI, Corning) to a cell density of 125,000 cells/ml. Dispense 20 μL of resuspended Hela-HiBit cells per well in 384-well TC treated plate (#12-565-343, Thermo Scientific) using standard cassette (#50950372, Thermo Scientific) on Multidrop Combi (#5840310, Thermo Scientific) inside laminar flow cabinet. Dispense test compounds onto plates using digital liquid dispenser (D300E, Tecan). Incubate plates in humidified tissue culture incubator @37° C. for 18 hours. Add 20 ul of prepared Nano-Glo® HiBiT Lytic detection buffer (N3050, Promega) to each well of 384-well plate using small tube cassette (#24073295, Thermo Scientific) on Multidrop Combi, incubate @ RT for 30-60 min. Read plates on microplate reader (Envision 2105, PerkinElmer) using 384 well Ultra-Sensitive luminescence mode. Raw data files and compound information reports are swept into centralized data lake and deconvoluted using automated scripts designed by TetraScience, Inc. Data analysis, curve-fitting and reporting done in Dotmatics Informatics Suite using Screening Ultra module.

SMARCA4 = SMARCA4 (Homo sapiens (Human), UniProt P51532); assay: SMARCA4 HiBiT degradation assay in HeLa cells; format: cell-based; settings: 18 hours; for DC50: read-out: DC50 (SM4-HeLa) SMARCA4 degradation potency; for Dmax: HeLa, read-out: Dmax % (SM4-HeLa) maximum SMARCA4 degradation within the concentrations tested
Method: as §1, §2

Sequence of SMARCA2 (P51531 whole entry): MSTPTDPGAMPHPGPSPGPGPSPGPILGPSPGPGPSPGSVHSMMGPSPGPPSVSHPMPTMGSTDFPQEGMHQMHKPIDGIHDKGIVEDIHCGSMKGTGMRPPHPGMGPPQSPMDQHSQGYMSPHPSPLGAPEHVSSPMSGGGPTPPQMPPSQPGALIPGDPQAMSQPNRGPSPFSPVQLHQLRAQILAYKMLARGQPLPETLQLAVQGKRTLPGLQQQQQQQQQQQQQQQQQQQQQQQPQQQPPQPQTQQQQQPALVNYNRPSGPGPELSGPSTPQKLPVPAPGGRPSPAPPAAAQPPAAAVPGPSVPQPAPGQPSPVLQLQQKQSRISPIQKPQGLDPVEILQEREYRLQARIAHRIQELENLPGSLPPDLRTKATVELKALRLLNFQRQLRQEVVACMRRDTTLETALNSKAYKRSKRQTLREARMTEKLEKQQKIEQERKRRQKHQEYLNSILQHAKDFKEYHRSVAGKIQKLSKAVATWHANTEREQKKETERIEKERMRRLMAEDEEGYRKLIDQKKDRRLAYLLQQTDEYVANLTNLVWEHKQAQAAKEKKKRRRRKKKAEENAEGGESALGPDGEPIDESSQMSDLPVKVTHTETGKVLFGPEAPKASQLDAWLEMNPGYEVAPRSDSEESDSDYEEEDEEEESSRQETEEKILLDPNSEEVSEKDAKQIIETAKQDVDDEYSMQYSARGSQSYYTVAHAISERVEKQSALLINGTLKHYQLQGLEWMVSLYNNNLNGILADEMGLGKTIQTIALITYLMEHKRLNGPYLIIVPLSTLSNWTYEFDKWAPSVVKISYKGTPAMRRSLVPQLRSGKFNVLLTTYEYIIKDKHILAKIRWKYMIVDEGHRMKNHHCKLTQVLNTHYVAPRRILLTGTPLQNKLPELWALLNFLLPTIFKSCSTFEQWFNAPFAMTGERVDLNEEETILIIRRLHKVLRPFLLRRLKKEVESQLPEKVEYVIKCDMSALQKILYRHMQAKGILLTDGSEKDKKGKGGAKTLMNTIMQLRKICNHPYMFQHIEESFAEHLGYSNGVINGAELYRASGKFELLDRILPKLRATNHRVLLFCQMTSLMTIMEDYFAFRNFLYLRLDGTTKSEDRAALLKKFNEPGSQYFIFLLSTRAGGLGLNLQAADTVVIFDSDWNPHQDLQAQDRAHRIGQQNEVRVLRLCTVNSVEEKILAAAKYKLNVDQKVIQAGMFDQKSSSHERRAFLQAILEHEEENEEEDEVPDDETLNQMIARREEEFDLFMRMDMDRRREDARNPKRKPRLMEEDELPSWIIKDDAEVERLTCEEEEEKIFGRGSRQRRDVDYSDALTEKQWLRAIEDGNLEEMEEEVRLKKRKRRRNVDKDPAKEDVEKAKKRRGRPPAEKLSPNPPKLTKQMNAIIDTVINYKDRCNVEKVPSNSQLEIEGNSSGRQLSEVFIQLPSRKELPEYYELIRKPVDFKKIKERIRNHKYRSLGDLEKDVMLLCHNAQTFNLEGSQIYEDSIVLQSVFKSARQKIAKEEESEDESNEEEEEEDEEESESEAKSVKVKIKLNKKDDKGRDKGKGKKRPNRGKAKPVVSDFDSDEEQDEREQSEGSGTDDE
Sequence of SMARCA4 (P51532 whole entry): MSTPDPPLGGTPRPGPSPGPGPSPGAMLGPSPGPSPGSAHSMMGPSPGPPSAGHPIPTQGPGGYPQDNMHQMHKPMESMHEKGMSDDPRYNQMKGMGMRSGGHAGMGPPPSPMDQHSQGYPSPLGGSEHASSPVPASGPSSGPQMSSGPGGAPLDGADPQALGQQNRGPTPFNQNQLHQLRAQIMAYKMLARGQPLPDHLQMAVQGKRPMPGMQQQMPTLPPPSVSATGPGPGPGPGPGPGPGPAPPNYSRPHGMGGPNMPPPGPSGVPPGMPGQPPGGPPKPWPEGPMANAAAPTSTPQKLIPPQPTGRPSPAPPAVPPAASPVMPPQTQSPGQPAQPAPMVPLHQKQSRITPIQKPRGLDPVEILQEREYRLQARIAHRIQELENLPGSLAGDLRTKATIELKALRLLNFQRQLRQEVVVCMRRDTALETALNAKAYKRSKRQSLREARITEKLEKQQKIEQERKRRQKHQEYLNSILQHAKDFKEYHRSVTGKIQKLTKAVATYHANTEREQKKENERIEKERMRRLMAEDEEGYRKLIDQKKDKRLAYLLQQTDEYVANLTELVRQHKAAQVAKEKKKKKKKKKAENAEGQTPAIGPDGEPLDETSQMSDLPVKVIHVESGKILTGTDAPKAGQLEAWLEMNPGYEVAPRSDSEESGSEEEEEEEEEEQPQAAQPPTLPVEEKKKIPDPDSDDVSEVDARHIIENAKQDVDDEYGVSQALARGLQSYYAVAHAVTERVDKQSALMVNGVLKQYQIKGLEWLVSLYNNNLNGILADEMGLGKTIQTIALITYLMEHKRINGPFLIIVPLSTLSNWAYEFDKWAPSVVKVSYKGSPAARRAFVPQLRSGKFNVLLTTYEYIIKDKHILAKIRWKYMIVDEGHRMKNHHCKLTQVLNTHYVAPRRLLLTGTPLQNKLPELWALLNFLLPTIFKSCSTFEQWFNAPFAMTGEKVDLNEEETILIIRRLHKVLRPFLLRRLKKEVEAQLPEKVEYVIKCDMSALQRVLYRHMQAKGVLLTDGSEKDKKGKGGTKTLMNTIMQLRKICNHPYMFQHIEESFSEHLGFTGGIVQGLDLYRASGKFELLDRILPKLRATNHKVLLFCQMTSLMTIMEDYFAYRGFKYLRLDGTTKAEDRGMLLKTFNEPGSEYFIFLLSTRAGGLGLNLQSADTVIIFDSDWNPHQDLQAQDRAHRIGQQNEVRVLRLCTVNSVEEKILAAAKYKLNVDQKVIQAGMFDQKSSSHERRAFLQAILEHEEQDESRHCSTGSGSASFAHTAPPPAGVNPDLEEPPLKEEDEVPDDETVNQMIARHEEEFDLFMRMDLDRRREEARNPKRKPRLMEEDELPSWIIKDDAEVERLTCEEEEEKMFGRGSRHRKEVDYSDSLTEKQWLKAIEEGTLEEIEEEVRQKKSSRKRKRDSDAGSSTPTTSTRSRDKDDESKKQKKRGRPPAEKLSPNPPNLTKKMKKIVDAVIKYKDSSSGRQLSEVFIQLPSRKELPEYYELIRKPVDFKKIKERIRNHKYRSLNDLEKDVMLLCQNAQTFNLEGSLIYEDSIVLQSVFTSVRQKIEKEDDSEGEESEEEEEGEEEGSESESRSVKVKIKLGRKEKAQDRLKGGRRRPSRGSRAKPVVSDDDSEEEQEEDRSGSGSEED

| Structure (SMILES) | Dmax % (SM2-HeLa) maximum SMARCA2 degradation within the concentrations tested (SMARCA2) | DC50 (SMARCA2) | Dmax % (SM4-HeLa) maximum SMARCA4 degradation within the concentrations tested (SMARCA4) | DC50 (SMARCA4) | Dmax (SMARCA2) | Dmax (SMARCA4) |
| --- | --- | --- | --- | --- | --- | --- |
| CCC(CN1CCC(N2CCN3c4cc(-c5ccccc5O)nnc4NC[C@H]3C2)C1)Oc1cc(C(C(=O)N2C[C@H](O)C[C@H]2C(=O)N[C@@H](C)c2ccc(-c3scnc3C)cc2)C(C)C)on1 (stereo partly drawn) [Example 62, (2S,4R)-4-hydroxy-1-(2-(3-((1-(3-((S)-2-(2-hydroxyphenyl)-5,6,6a,7,9,10-hexahydro-8H-pyrazino[1′,2′:4,5]pyrazino[2,3-c]pyridazin-8-yl)pyrrolidin-1-yl)butan-2-yl)oxy)isoxazol-5-yl)-3-methylbutanoyl)-N-((S)-1-(4-(4-methylthiazol-5-yl)phenyl)ethyl)pyrrolidine-2-carboxamide] | A/A (A = Dmax >75%) | < 100 nM | A/A (A = Dmax >75%) | < 100 nM | – | – |
| Cc1ncsc1-c1ccc([C@H](C)NC(=O)[C@@H]2C[C@@H](O)CN2C(=O)[C@@H](c2cc(O[C@H](C)CN3CCC(N4CCN5c6cc(-c7ccccc7O)nnc6NC[C@H]5C4)C3)no2)C(C)C)cc1 (single isomer, unassigned) [Example 51] | A/A (A = Dmax >75%) | < 100 nM | A/A (A = Dmax >75%) | < 100 nM | – | – |
| Cc1ncsc1-c1ccc([C@H](C)NC(=O)[C@@H]2C[C@@H](O)CN2C(=O)[C@@H](c2cc(O[C@H](C)CN3CCC(N4CCN5c6cc(-c7ccccc7O)nnc6NC[C@H]5C4)C3)no2)C(C)C)cc1 (single isomer, unassigned) [Example 50] | – | < 100 nM | – | < 100 nM | > 75% | > 75% |
| Cc1ncsc1-c1ccc([C@H](C)NC(=O)[C@@H]2C[C@@H](O)CN2C(=O)[C@@H](c2cc(OCCN3CC4CC(N5CCN6c7cc(-c8ccccc8O)nnc7NC[C@H]6C5)CC4C3)no2)C(C)C)cc1 (stereo partly drawn) [Example 47, (2S,4R)-4-hydroxy-1-((2R)-2-(3-(2-(5-((S)-2-(2-hydroxyphenyl)-5,6,6a,7,9,10-hexahydro-8H-pyrazino[1′,2′:4,5]pyrazino[2,3-c]pyridazin-8-yl)hexahydrocyclopenta[c]pyrrol-2(1H)-yl)ethoxy)isoxazol-5-yl)-3-methylbutanoyl)-N-((S)-1-(4-(4-methylthiazol-5-yl)phenyl)ethyl)pyrrolidine-2-carboxamide] | – | < 100 nM | – | < 100 nM | > 75% | > 75% |
| Cc1ncsc1-c1ccc([C@H](C)NC(=O)[C@@H]2C[C@@H](O)CN2C(=O)[C@@H](c2cc(OCCN3CCC(N4CCN5c6cc(-c7ccccc7O)nnc6NCC5(C)C4)C3)no2)C(C)C)cc1 (stereo partly drawn) [Example 71, (2S,4R)-4-hydroxy-1-((2R)-2-(3-(2-(3-(2-(2-hydroxyphenyl)-6a-methyl-5,6,6a,7,9,10-hexahydro-8H-pyrazino[1′,2′:4,5]pyrazino[2,3-c]pyridazin-8-yl)pyrrolidin-1-yl)ethoxy)isoxazol-5-yl)-3-methylbutanoyl)-N-((S)-1-(4-(4-methylthiazol-5-yl)phenyl)ethyl)pyrrolidine-2-carboxamide] | – | < 100 nM | – | < 100 nM | > 75% | > 75% |
| Cc1ncsc1-c1ccc([C@H](C)NC(=O)[C@@H]2C[C@@H](O)CN2C(=O)C(c2cc(O[C@H](C)C(=O)N3CCC(N4CCN5c6cc(-c7ccccc7O)nnc6NC[C@H]5C4)C3)no2)C(C)C)cc1 (stereo partly drawn) [Example 29, (2S,4R)-4-hydroxy-1-(2-(3-(((2R)-1-(3-((S)-2-(2-hydroxyphenyl)-5,6,6a,7,9,10-hexahydro-8H-pyrazino[1′,2′:4,5]pyrazino[2,3-c]pyridazin-8-yl)pyrrolidin-1-yl)-1-oxopropan-2-yl)oxy)isoxazol-5-yl)-3-methylbutanoyl)-N-((S)-1-(4-(4-methylthiazol-5-yl)phenyl)ethyl)pyrrolidine-2-carboxamide] | – | < 100 nM | – | 100 to 1000 nM | – | – |

Results, then the compound that gave them:

| Dmax % (SM2-HeLa) maximum SMARCA2 degradation within the concentrations tested (SMARCA2) | DC50 (SMARCA2) | Dmax % (SM4-HeLa) maximum SMARCA4 degradation within the concentrations tested (SMARCA4) | DC50 (SMARCA4) | Dmax (SMARCA2) | Dmax (SMARCA4) | Structure (SMILES) |
| --- | --- | --- | --- | --- | --- | --- |
| – | < 100 nM | – | < 100 nM | > 75% | > 75% | Cc1ncsc1-c1ccc([C@H](C)NC(=O)[C@@H]2C[C@@H](O)CN2C(=O)[C@@H](c2cc(OCCN3CCC(N4CCN5c6cc(-c7ccccc7O)nnc6NC[C@H]5C4)C(O)C3)no2)C(C)C)cc1 (stereo partly drawn) [Example 94, (2S,4R)-4-hydroxy-1-((2R)-2-(3-(2-(3-hydroxy-4-((S)-2-(2-hydroxyphenyl)-5,6,6a,7,9,10-hexahydro-8H-pyrazino[1′,2′:4,5]pyrazino[2,3-c]pyridazin-8-yl)piperidin-1-yl)ethoxy)isoxazol-5-yl)-3-methylbutanoyl)-N-((S)-1-(4-(4-methylthiazol-5-yl)phenyl)ethyl)pyrrolidine-2-carboxamide] |
| – | < 100 nM | – | 100 to 1000 nM | – | – | Cc1ncsc1-c1ccc([C@H](C)NC(=O)[C@@H]2C[C@@H](O)CN2C(=O)[C@@H](c2cc(OCCN3CCC(N4CCC(N5CCN6c7cc(-c8ccccc8O)nnc7NC[C@H]6C5)CC4)C3)no2)C(C)C)cc1 (stereo partly drawn) [Example 26, (2S,4R)-4-hydroxy-1-((2R)-2-(3-(2-(3-(4-((S)-2-(2-hydroxyphenyl)-5,6,6a,7,9,10-hexahydro-8H-pyrazino[1′,2′:4,5]pyrazino[2,3-c]pyridazin-8-yl)piperidin-1-yl)pyrrolidin-1-yl)ethoxy)isoxazol-5-yl)-3-methylbutanoyl)-N-((S)-1-(4-(4-methylthiazol-5-yl)phenyl)ethyl)pyrrolidine-2-carboxamide] |
| – | < 100 nM | – | < 100 nM | – | – | Cc1ncsc1-c1ccc([C@H](C)NC(=O)[C@@H]2C[C@@H](O)CN2C(=O)[C@@H](c2cc(OCCN3CCC(C(C)N4CCN5c6cc(-c7ccccc7O)nnc6NC[C@H]5C4)CC3)no2)C(C)C)cc1 (single isomer, unassigned) [Example 59] |
| – | < 100 nM | – | < 100 nM | > 75% | > 75% | Cc1ncsc1-c1ccc([C@H](C)NC(=O)[C@@H]2C[C@@H](O)CN2C(=O)[C@@H](c2cc(OCCN3CCC(N4CCN5c6cc(-c7ccccc7O)nnc6NC(C)C5C4)CC3)no2)C(C)C)cc1 (stereo partly drawn) [Example 96, (2S,4R)-4-hydroxy-1-((2R)-2-(3-(2-(4-(2-(2-hydroxyphenyl)-6-methyl-5,6,6a,7,9,10-hexahydro-8H-pyrazino[1′,2′:4,5]pyrazino[2,3-c]pyridazin-8-yl)piperidin-1-yl)ethoxy)isoxazol-5-yl)-3-methylbutanoyl)-N-((S)-1-(4-(4-methylthiazol-5-yl)phenyl)ethyl)pyrrolidine-2-carboxamide] |
| – | < 100 nM | – | < 100 nM | > 75% | > 75% | Cc1ncsc1-c1ccc([C@H](C)NC(=O)[C@@H]2C[C@@H](O)CN2C(=O)[C@@H](c2cc(OCCN3CCC(N4CCN5c6cc(-c7ccccc7O)nnc6NC[C@H]5C4)CC3C)no2)C(C)C)cc1 (stereo partly drawn) [Example 54, (2S,4R)-4-hydroxy-1-((2R)-2-(3-(2-(4-((S)-2-(2-hydroxyphenyl)-5,6,6a,7,9,10-hexahydro-8H-pyrazino[1′,2′:4,5]pyrazino[2,3-c]pyridazin-8-yl)-2-methylpiperidin-1-yl)ethoxy)isoxazol-5-yl)-3-methylbutanoyl)-N-((S)-1-(4-(4-methylthiazol-5-yl)phenyl)ethyl)pyrrolidine-2-carboxamide] |
| – | < 100 nM | – | < 100 nM | > 75% | > 75% | Cc1ncsc1-c1ccc([C@H](C)NC(=O)[C@@H]2C[C@@H](O)CN2C(=O)[C@@H](c2cc(O[C@@H](C)CN3CCC(N4CCN5c6cc(-c7ccccc7O)nnc6NC(C)C5C4)CC3)no2)C(C)C)cc1 (stereo partly drawn) [Example 97, (2S,4R)-4-hydroxy-1-((2R)-2-(3-(((2S)-1-(4-(2-(2-hydroxyphenyl)-6-methyl-5,6,6a,7,9,10-hexahydro-8H-pyrazino[1′,2′:4,5]pyrazino[2,3-c]pyridazin-8-yl)piperidin-1-yl)propan-2-yl)oxy)isoxazol-5-yl)-3-methylbutanoyl)-N-((S)-1-(4-(4-methylthiazol-5-yl)phenyl)ethyl)pyrrolidine-2-carboxamide] |
